The record followed here is patent publication US9630922B2, “3-spiro-7-hydroxamic acid tetralins as HDAC inhibitors” (Forma Therapeutics, Inc., priority 2015, dated 2017).

Some results are limits rather than exact numbers.

The assay deals with T1, HDAC6 (Homo sapiens, UniProt Q9UBN7).
T1 construct: Full length human recombinant HDAC6 protein was expressed in baculoviral system; made in house; host or cells: baculoviral system
T1 sequence (Q9UBN7 1-1215): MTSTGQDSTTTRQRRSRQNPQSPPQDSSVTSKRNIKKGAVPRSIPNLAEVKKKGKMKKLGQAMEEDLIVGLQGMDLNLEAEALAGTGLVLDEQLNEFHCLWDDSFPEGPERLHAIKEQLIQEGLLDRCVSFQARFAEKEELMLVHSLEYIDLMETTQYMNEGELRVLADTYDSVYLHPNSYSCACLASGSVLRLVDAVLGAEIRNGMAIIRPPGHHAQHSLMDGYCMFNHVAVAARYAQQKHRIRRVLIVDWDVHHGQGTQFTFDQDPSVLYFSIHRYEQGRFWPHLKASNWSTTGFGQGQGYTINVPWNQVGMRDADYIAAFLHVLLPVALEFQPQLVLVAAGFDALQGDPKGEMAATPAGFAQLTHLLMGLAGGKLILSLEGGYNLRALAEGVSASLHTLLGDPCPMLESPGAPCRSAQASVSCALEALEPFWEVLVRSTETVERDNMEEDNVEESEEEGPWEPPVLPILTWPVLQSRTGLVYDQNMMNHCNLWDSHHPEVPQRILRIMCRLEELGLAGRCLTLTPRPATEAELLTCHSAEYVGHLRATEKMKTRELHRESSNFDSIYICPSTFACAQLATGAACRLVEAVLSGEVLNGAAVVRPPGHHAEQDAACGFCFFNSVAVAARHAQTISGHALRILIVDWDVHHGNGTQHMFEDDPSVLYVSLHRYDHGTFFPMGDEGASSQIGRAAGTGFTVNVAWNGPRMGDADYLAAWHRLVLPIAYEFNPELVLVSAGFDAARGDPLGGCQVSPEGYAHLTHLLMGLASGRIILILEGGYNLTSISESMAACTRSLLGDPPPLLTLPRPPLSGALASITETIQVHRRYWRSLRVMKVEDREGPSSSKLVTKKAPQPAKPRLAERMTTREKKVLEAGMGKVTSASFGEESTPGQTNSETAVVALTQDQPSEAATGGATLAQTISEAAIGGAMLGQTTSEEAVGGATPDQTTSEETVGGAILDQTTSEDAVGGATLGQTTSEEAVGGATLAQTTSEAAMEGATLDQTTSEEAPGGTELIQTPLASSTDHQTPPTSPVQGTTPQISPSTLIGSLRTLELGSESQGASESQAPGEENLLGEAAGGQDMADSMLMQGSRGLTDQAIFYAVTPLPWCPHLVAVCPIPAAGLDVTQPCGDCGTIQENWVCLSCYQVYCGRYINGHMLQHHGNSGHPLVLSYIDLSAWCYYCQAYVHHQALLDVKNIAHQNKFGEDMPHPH
In words: In vitro Histone Deacetylase Assay (enzymatic HDAC6 electrophoretic mobility shift assay). In kind it is biochemical. The settings on record: full length human recombinant HDAC6, 1 nM enzyme, 2 μM peptide substrate RHKK(Ac)-NH2, 25° C.; read-out: HDAC6 activity range. Here is the method:
The enzymatic HDAC6 assay was performed using electrophoretic mobility shift assay. Full length human recombinant HDAC6 protein was expressed in baculoviral system and purified by affinity chromatography. The enzymatic reactions were assembled in 384 well plates in a total volume of 25 μL in a reaction buffer composing: 100 mM HEPES, pH7.5, 25 mM KCl, 0.1% bovine serum albumin, 0.01% Triton X-100, 1% DMSO (from compounds) 2 μM of the fluorescently labeled peptide substrate and enzyme. The enzyme was added at a final concentration of 1 nM. The peptide substrate RHKK(Ac)—NH2 was used. The compounds were tested at 12 concentrations spaced by 3× dilution intervals. Negative control samples (0%-inhibition in the absence of inhibitor) and positive control samples (100%-inhibition) were assembled in replicates of four in each assay plate. The reactions were incubated at 25° C. and quenched by the addition of 45 μL of termination buffer (100 mM HEPES, pH 7.5, 0.01% Triton X-100, 0.05% SDS).
The terminated assay plates were analyzed on LabChip® 3000 microfluidic electrophoresis instrument (Perkin Elmer/Caliper Life Sciences). The fluorescence intensity of the electrophoretically separated de-acetylated product and substrate peptide was measured. Activity in each sample was determined as the product to sum ratio (PSR): P/(S+P), where P is the peak height of the product peptide and S is the peak height of the substrate peptide. Percent inhibition (Pinh) is determined using the following equation:
Pinh=(PSR0%−PSRinh)/(PSR0%−PSR100%)*100, where PSRinh is the product sum ratio in the presence of inhibitor, PSR0% is the average product sum ration in the absence of inhibitor and PSR100% is the average product sum ratio in 100%-inhibition control samples. The IC50 values of inhibitors were determined by fitting the %-inhibition curves with 4 parameter dose-response model using XLfit 4 software.
As set forth in Table-31, below, IC50 values are defined as follows: IC50≦0.1 μM (+++); IC50>0.1 μM and ≦0.5 μM (++); IC50>0.5 μM (+).

Take `O=C(NO)c1ccc2c(c1)CC[C@]1(CCN(CC(=O)N3CCOCC3)C1=O)C2` [Compound I-43, (R)-N-hydroxy-1′-(2-morpholino-2-oxoethyl)-2′-oxo-3,4-dihydro-1H-spiro[naphthalene-2,3′-pyrrolidine]-6-carboxamide]: the IC50 is not above 100 nM. Consider `O=C(NO)c1ccc2c(c1)CC[C@]1(CCN(Cc3ccccc3)C1=O)C2` [Compound I-50, (R)-1′-benzyl-N-hydroxy-2′-oxo-3,4-dihydro-1H-spiro[naphthalene-2,3′-pyrrolidine]-6-carboxamide], for which the IC50 is not above 100 nM. In the case of `CCN1CC2(CCc3cc(C(=O)NO)ccc3C2)CC1=O` (single isomer, unassigned) [Compound I-206] it was not above 100 nM. As for `COc1cc(N2CC[C@@]3(CCc4cc(C(=O)NO)ccc4C3)C2=O)ccc1F` [Compound I-129, (2S)-1′-(4-fluoro-3-methoxyphenyl)-N-hydroxy-2′-oxo-3,4-dihydro-1H-spiro[naphthalene-2,3′-pyrrolidine]-6-carboxamide], the figure is not above 100 nM. Regarding `O=C(NO)c1ccc2c(c1)CC[C@]1(CCN(c3cc(F)ccc3F)C1=O)C2` [Compound I-167, (R)-1′-(2,5-difluorophenyl)-N-hydroxy-2′-oxo-3,4-dihydro-1H-spiro[naphthalene-2,3'-pyrrolidine]-6-carboxamide], the IC50 is not above 100 nM.

As for `O=C(NO)c1ccc2c(c1)CC[C@]1(CCN(Cc3ccccc3OC(F)(F)F)C1=O)C2` [Compound I-41, (R)-N-hydroxy-2′-oxo-1′-(2-(trifluoromethoxy)benzyl)-3,4-dihydro-1H-spiro[naphthalene-2,3′-pyrrolidine]-6-carboxamide], the IC50 was not above 100 nM.

Turning to `CN(C)c1ccc(N2CC[C@@]3(CCc4cc(C(=O)NO)ccc4C3)C2=O)cn1` [Compound I-152, (2S)-1′-[6-(dimethylamino)pyridin-3-yl]-N-hydroxy-2′-oxo-3,4-dihydro-1H-spiro[naphthalene-2,3′-pyrrolidine]-6-carboxamide], the IC50 is 100 to 500 nM. As for `O=C(NO)c1ccc2c(c1)CC[C@@]1(CCN(Cc3cccnc3)C1=O)C2` [Compound I-19, (S)-N-hydroxy-2′-oxo-1′-(pyridin-3-ylmethyl)-3,4-dihydro-1H-spiro[naphthalene-2,3′-pyrrolidine]-6-carboxamide], the figure is not above 100 nM. In the case of `O=C(NO)c1ccc2c(c1)CC[C@]1(CCN(Cc3ccc(S(=O)(=O)C(F)(F)F)cc3)C1=O)C2` [Compound I-106, (R)-N-hydroxy-2′-oxo-1′-(4-((trifluoromethyl)sulfonyl)benzyl)-3,4-dihydro-1H-spiro[naphthalene-2,3′-pyrrolidine]-6-carboxamide] it was not above 100 nM; in that of `O=C(NO)c1ccc2c(c1)CCC1(CCN(c3ccccc3)C1=O)O2` (stereo not shown) [Compound I-231, N-hydroxy-2′-oxo-1′-phenylspiro[chromane-2,3′-pyrrolidine]-6-carboxamide], 100 to 500 nM. As for `CC(C)N1CC2(CCc3cc(C(=O)NO)ccc3C2)CC1=O` (single isomer, unassigned) [Compound I-213], the IC50 is not above 100 nM. As for `COc1cccc(N2CC[C@]3(CCc4cc(C(=O)NO)ccc4C3)C2=O)c1` [Compound I-108, (R)-N-hydroxy-1′-(3-methoxyphenyl)-2′-oxo-3,4-dihydro-1H-spiro[naphthalene-2,3-pyrrolidine]-6-carboxamide], the figure is not above 100 nM; as for `COc1ccccc1CN1CC[C@]2(CCc3cc(C(=O)NO)ccc3C2)C1=O` [Compound I-44, (R)-N-hydroxy-1′-(2-methoxybenzyl)-2′-oxo-3,4-dihydro-1H-spiro[naphthalene-2,3′-pyrrolidine]-6-carboxamide], not above 100 nM; as for `CCN1CCCC2(CCc3cc(C(=O)NO)ccc3C2)C1=O` (single isomer, unassigned) [Compound I-184], not above 100 nM. In the case of `O=C(NO)c1ccc2c(c1)CC[C@]1(CCN(c3ccc(F)c(F)c3)C1=O)C2` [Compound I-119, (R)-1′-(3,4-difluorophenyl)-N-hydroxy-2′-oxo-3,4-dihydro-1H-spiro[naphthalene-2,3′-pyrrolidine]-6-carboxamide] it was not above 100 nM; in that of `O=C(NO)c1ccc2c(c1)CC[C@@]1(CCN(CC(=O)N3CCOCC3)C1=O)C2` [Compound I-71, (S)-N-hydroxy-1′-(2-morpholino-2-oxoethyl)-2′-oxo-3,4-dihydro-1H-spiro[naphthalene-2,3′-pyrrolidine]-6-carboxamide], 100 to 500 nM; in that of `O=C(NO)c1ccc2c(c1)CC[C@@]1(CCN(c3ccc(Cl)cn3)C1=O)C2` [Compound I-130, (S)-1′-(5-chloropyridin-2-yl)-N-hydroxy-2′-oxo-3,4-dihydro-1H-spiro[naphthalene-2,3′-pyrrolidine]-6-carboxamide], not above 100 nM.

`COCCCN1CC2(CCc3cc(C(=O)NO)ccc3C2)CC1=O` (single isomer, unassigned) [Compound I-222]: the IC50 was not above 100 nM.

For the molecule `O=C(NO)c1ccc2c(c1)CCC1(CC(=O)N(C3CC3)C1)C2` (single isomer, unassigned) [Compound I-214], the IC50 is not above 100 nM. Regarding `O=C(NO)c1ccc2c(c1)CC[C@]1(CCN(c3ccc(F)cc3)C1=O)C2` [Compound I-120, (R)-1′-(4-fluorophenyl)-N-hydroxy-2′-oxo-3,4-dihydro-1H-spiro[naphthalene-2,3′-pyrrolidine]-6-carboxamide], the IC50 is not above 100 nM. As for `O=C(NO)c1ccc2c(c1)CCC1(CCN(c3cccnc3)C1=O)S2(=O)=O` (stereo not shown) [Compound I-240, N-hydroxy-2-oxo-1-(pyridin-3-yl)spiro[pyrrolidine-3,2′-thiochromane]-6′-carboxamide 1′,1′-dioxide], the figure is 100 to 500 nM; as for `N#Cc1ccc(N2CC[C@@]3(CCc4cc(C(=O)NO)ccc4C3)C2=O)cc1` [Compound I-173, (S)-1′-(4-cyanophenyl)-N-hydroxy-2′-oxo-3,4-dihydro-1H-spiro[naphthalene-2,3′-pyrrolidine]-6-carboxamide], not above 100 nM; as for `O=C(NO)c1ccc2c(c1)CC[C@]1(CCCN(C3CCC3)C1=O)C2` (single isomer, unassigned) [Compound I-198], not above 100 nM. As for `O=C(NO)c1ccc2c(c1)CC[C@@]1(CCN(Cc3ccccn3)C1=O)C2` [Compound I-78, (S)-N-hydroxy-2′-oxo-1′-(pyridin-2-ylmethyl)-3,4-dihydro-1H-spiro[naphthalene-2,3′-pyrrolidine]-6-carboxamide], the IC50 is not above 100 nM. As for `COc1ccc(CN2CCC3(CCc4cc(C(=O)NO)ccc4O3)CC2)cc1` [II-1, N-hydroxy-1′-(4-methoxybenzyl)spiro[chromane-2,4′-piperidine]-6-carboxamide], the figure is more than 500 nM.
